Measured values as given in patent US12427134B2, “Methods of reducing the risk of cardiovascular events in a subject with atrial fibrillation and/or atrial flutter” (priority 2019, dated 2025).

Test system: hypertriglyceridemic patients with cardiovascular disease or at high risk for cardiovascular disease
Test: REDUCE-IT: treatment-emergent adverse events and serious adverse events (safety population)
Settings: Safety population, N = 4089

## CC/C=C\C/C=C\C/C=C\C/C=C\C/C=C\CCCC(=O)OCC [AMR101, eicosapentaenoic acid ethyl ester]
  Serious adverse event - Anemia, n patients: 22
  Serious adverse event - Angina pectoris, % patients: (1.2) %
  Serious adverse event - Angina pectoris, n patients: 48
  Serious adverse event - Angina unstable, % patients: (1.0) %
  Serious adverse event - Angina unstable, n patients: 41
  Serious adverse event - Atrial fibrillation, % patients: (0.5) %
  Serious adverse event - Atrial fibrillation, n patients: 21
  Serious adverse event - Blood and lymphatic system disorders (SOC), % patients: (1.0) %
  Serious adverse event - Blood and lymphatic system disorders (SOC), n patients: 39
  Serious adverse event - Cardiac disorders (SOC), % patients: (4.7) %
  Serious adverse event - Cardiac disorders (SOC), n patients: 192
  Serious adverse event - Cardiac failure congestive, % patients: (0.5) %
  Serious adverse event - Cardiac failure congestive, n patients: 19
  Serious adverse event - Cellulitis, % patients: (0.9) %
  Serious adverse event - Cellulitis, n patients: 36
  Serious adverse event - Chest pain, % patients: (1.6) %
  Serious adverse event - Chest pain, n patients: 66
  Serious adverse event - Chronic obstructive pulmonary disease, % patients: (0.8) %
  Serious adverse event - Chronic obstructive pulmonary disease, n patients: 33
  Serious adverse event - Gastrointestinal disorders (SOC), % patients: (4.7) %
  Serious adverse event - Gastrointestinal disorders (SOC), n patients: 191
  Serious adverse event - Gastrointestinal hemorrhage, % patients: (0.6) %
  Serious adverse event - Gastrointestinal hemorrhage, n patients: 26
  Serious adverse event - General disorders and administration site conditions (SOC), % patients: (3.4) %
  Serious adverse event - General disorders and administration site conditions (SOC), n patients: 139
  Serious adverse event - Musculoskeletal and connective tissue disorders (SOC), % patients: (4.6) %
  Serious adverse event - Musculoskeletal and connective tissue disorders (SOC), n patients: 188
  Serious adverse event - Neoplasms benign, malignant, and unspecified (incl cysts and polyps) (SOC), % patients: (5.4) %
  Serious adverse event - Neoplasms benign, malignant, and unspecified (incl cysts and polyps) (SOC), n patients: 222
  Serious adverse event - Nervous system disorders (SOC), % patients: (2.5) %
  Serious adverse event - Nervous system disorders (SOC), n patients: 104
  Serious adverse event - Non-cardiac chest pain, % patients: (1.2) %
  Serious adverse event - Non-cardiac chest pain, n patients: 49
  Serious adverse event - Osteoarthritis, % patients: (2.0) %
  Serious adverse event - Osteoarthritis, n patients: 81
  Serious adverse event - Pneumonia, % patients: (2.6) %
  Serious adverse event - Pneumonia, n patients: 105
  Serious adverse event - Prostate cancer, % patients: (0.6) %
  Serious adverse event - Prostate cancer, n patients: 26
  Serious adverse event - Pulmonary embolism, % patients: (0.3) %
  Serious adverse event - Pulmonary embolism, n patients: 14
  Serious adverse event - Renal and urinary disorders (SOC), % patients: (2.9) %
  Serious adverse event - Renal and urinary disorders (SOC), n patients: 120
  Serious adverse event - Respiratory, thoracic, and mediastinal disorders (SOC), % patients: (3.5) %
  Serious adverse event - Respiratory, thoracic, and mediastinal disorders (SOC), n patients: 143
  Serious adverse event - Syncope, % patients: (0.7) %
  Serious adverse event - Syncope, n patients: 28
  Severe TEAE, %: (19.7) %
  Severe TEAE: Acute kidney injury, %: (0.7) %
  Severe TEAE: Acute respiratory failure, %: (0.5) %
  Severe TEAE: Angina pectoris, %: (0.2) %
  Severe TEAE: Angina unstable, %: (0.3) %
  Severe TEAE: Back pain, %: (0.5) %
  Severe TEAE: Cardiac disorders, %: (2.4) %
  Severe TEAE: Chest pain, %: (0.7) %
  Severe TEAE: Chronic obstructive pulmonary disease, %: (0.4) %
  Severe TEAE: General disorders and administration site conditions, %: (1.9) %
  Severe TEAE: Musculoskeletal and connective tissue disorders, %: (2.9) %
  Severe TEAE: Nervous system disorders, %: (1.9) %
  Severe TEAE: Osteoarthritis, %: (0.8) %
  Severe TEAE: Pneumonia, %: (1.5) %
  Severe TEAE: Renal and urinary disorders, %: (1.9) %
  Severe TEAE: Respiratory, thoracic, and mediastinal disorders, %: (2.5) %
  Severe TEAE: Syncope, %: (0.3) %
  Study Drug-Related Serious TEAE Leading to Withdrawal of Study Drug, %: (0.0) %
  Study Drug-Related Serious TEAE, %: (0.2) %
  Study Drug-Related TEAE Leading to Withdrawal of Study Drug, %: (3.4) %
  Study Drug-Related TEAE, %: (12.6) %
  Study drug-related TEAE leading to study drug withdrawal - Abdominal discomfort, % patients: (0.1) %
  Study drug-related TEAE leading to study drug withdrawal - Abdominal discomfort, n patients: 6
  Study drug-related TEAE leading to study drug withdrawal - Abdominal distension, % patients: (0.1) %
  Study drug-related TEAE leading to study drug withdrawal - Abdominal distension, n patients: 3
  Study drug-related TEAE leading to study drug withdrawal - Abdominal pain upper, % patients: (0.1) %
  Study drug-related TEAE leading to study drug withdrawal - Abdominal pain upper, n patients: 4
  Study drug-related TEAE leading to study drug withdrawal - Abdominal pain, % patients: (0.0) %
  Study drug-related TEAE leading to study drug withdrawal - Abdominal pain, n patients: 1
  Study drug-related TEAE leading to study drug withdrawal - Abnormal feces, % patients: (0.0) %
  Study drug-related TEAE leading to study drug withdrawal - Abnormal feces, n patients: 0
  Study drug-related TEAE leading to study drug withdrawal - Arthralgia, % patients: (0.2) %
  Study drug-related TEAE leading to study drug withdrawal - Arthralgia, n patients: 7
  Study drug-related TEAE leading to study drug withdrawal - Arthritis, % patients: (0.1) %
  Study drug-related TEAE leading to study drug withdrawal - Arthritis, n patients: 3
  Study drug-related TEAE leading to study drug withdrawal - Constipation, % patients: (0.1) %
  Study drug-related TEAE leading to study drug withdrawal - Constipation, n patients: 4
  Study drug-related TEAE leading to study drug withdrawal - Diarrhea, % patients: (1.0) %
  Study drug-related TEAE leading to study drug withdrawal - Diarrhea, n patients: 41
  Study drug-related TEAE leading to study drug withdrawal - Dyspepsia, % patients: (0.1) %
  Study drug-related TEAE leading to study drug withdrawal - Dyspepsia, n patients: 4
  Study drug-related TEAE leading to study drug withdrawal - Eructation, % patients: (0.1) %
  Study drug-related TEAE leading to study drug withdrawal - Eructation, n patients: 3
  Study drug-related TEAE leading to study drug withdrawal - Flatulence, % patients: (0.1) %
  Study drug-related TEAE leading to study drug withdrawal - Flatulence, n patients: 6
  Study drug-related TEAE leading to study drug withdrawal - Gastric disorder, % patients: (0.1) %
  Study drug-related TEAE leading to study drug withdrawal - Gastric disorder, n patients: 4
